Measurements from US4997816A, “Induction of fertile ovulation in anoestruns mares” (The University of Melbourne, priority 1985, dated 1991).
Several values for one entry are separate records, joined by “and”; a condition that tells them apart may be missing. Equal entries are not always repeated. Where two headings read alike, the source gives them in different places.

What was measured:
Assay type in all cases: in vivo, mare
[1] = system: Standardbred mares in deep anoestrus; settings: for Proportion mares ovulating: deep anoestrus; for Proportion mares ovulating / Percentage mares ovulating: 1984
Description: Delivery of GnRH was achieved via osmotic minipumps (OMP; Alza Corp., Palo Alto, CA:). These pumps are constructed of a rigid, semi-permeable membrane, inside which is suspended a water-proof bag which is filled with the substance to be infused. The neck of the bag is open to the atmosphere. Between the bag and the membrane a special osmotic solution is held. This solution causes an influx of water through the semi-permeable membrane when the OMP is placed in the body of animals. The influx of water collapses the bag at a fixed rate and the substance contained in the bag is expelled from the OMP at a steady rate. […] Fourteen Standardbred mares in deep anoestrus were divided into 3 groups. Group C (controls; n=5) received no treatment while Group 50 (n=5) and Group 100 (n=4) were given infusions of GnRH at rates of 50 ng/kg/h and 100 ng/kg/h respectively. The GnRH was administered via subcutaneously implanted osmotic minipumps (OMP) for 28 days. Blood samples were collected daily and ovarian palpation and oestrus detection was carried out 3 times per week or daily if a follicle >3.5 cm was detected.

[2] = system: Standardbred mares in transitional or "shallow" anoestrus
Description: Delivery of GnRH was achieved via osmotic minipumps (OMP; Alza Corp., Palo Alto, CA:). These pumps are constructed of a rigid, semi-permeable membrane, inside which is suspended a water-proof bag which is filled with the substance to be infused. The neck of the bag is open to the atmosphere. Between the bag and the membrane a special osmotic solution is held. This solution causes an influx of water through the semi-permeable membrane when the OMP is placed in the body of animals. The influx of water collapses the bag at a fixed rate and the substance contained in the bag is expelled from the OMP at a steady rate. […] Ten young Standardbred mares of 3 to 5 years of age as judged by wear of the teeth were used in the experiment. During the experiment, the mares were fed hay twice daily and kept in a paddock. The mares were vaccinated against Tetanus and Strangles and were given regular anthelmintic and lice treatments. Their body condition during the experiment was good to very good. Ovarian palpations were carried out and blood was collected from the mares every 2 or 3 days for 4 weeks prior to commencement of the experiment. […] The experiment commenced on Sept. 10, 1984. Mares were randomised in pairs to a Treated group or a Control group until all the mares had been assigned to groups by Sept. 21. The mares were paired on the basis of each mare having approximately equal ovarian follicular activity. Each treated mare was weighted just prior to the experiment. The dose of GnRH (100 ng/kg/hr) to be administered over 28 days was calculated and dissolved in sterile, physiological (0.9%) saline. The solution was loaded into an OMP and placed in a beaker of saline at room temperature overnight to allow for the "start up time" of the OMP. The OMP were inserted subcutaneously in the side of the necks of the treated mares, under local infiltration anaesthesia. The pumps were retained using 1 or 2 mattress sutures in the skin. After insertion of the OMP, the treated and control mares were run as a group in a single paddock. Every 2 or 3 days the mares were brought into the yards. Ovarian palpations were carried out and blood samples were collected on these days. In addition, the mares were teased with a vigorous stallion, to detect oestrus. […] Blood samples were assayed for lutsinizing hormone (LH) and progesterone concentrations. Ultrasound echography was used to diagnose pregnancy 14 days after ovulation. Subsequent ultrasound examinations were made every 2 or 3 days until Day 45 of pregnancy, when the experiment was terminated.

[3] = system: maiden Standardbred mares in deep winter anoestrus; test: Example III: 28-day subcutaneous GnRH infusion by osmotic minipump, induction of ovulation (1985); settings: for Proportion mares ovulating: deep anoestrus; for Proportion mares ovulating / Percentage mares ovulating: 1985
Description: Delivery of GnRH was achieved via osmotic minipumps (OMP; Alza Corp., Palo Alto, CA:). These pumps are constructed of a rigid, semi-permeable membrane, inside which is suspended a water-proof bag which is filled with the substance to be infused. The neck of the bag is open to the atmosphere. Between the bag and the membrane a special osmotic solution is held. This solution causes an influx of water through the semi-permeable membrane when the OMP is placed in the body of animals. The influx of water collapses the bag at a fixed rate and the substance contained in the bag is expelled from the OMP at a steady rate. […] Sixteen maiden Standardbred mares, 3 to 6 years of age were used in the experiment which was conducted during deep winter anoestrus in 1985. The mares were in good to excellent condition and were run in 2 outside paddocks during the period of the experiment. The mares were divided into 3 groups. Group C (n=5) were untreated and acted as a control group, while Group 50 (n=5) and Group 100 (n=6) received infusions of GnRH at rates of 50 ng/kg/h and 100 ng/kg/h, respectively. The GnRH was delivered via subcutaneously implanted OMP for 28 days, starting on July 2, 1985. Ovarian palpations and oestrus detection was carried out 3 times per week or daily when an ovarian follice of >3 cm diameter was detected.

[4] = system: Standardbred and Standardbred-type mares in transitional anoestrus
Description: Delivery of GnRH was achieved via osmotic minipumps (OMP; Alza Corp., Palo Alto, CA:). These pumps are constructed of a rigid, semi-permeable membrane, inside which is suspended a water-proof bag which is filled with the substance to be infused. The neck of the bag is open to the atmosphere. Between the bag and the membrane a special osmotic solution is held. This solution causes an influx of water through the semi-permeable membrane when the OMP is placed in the body of animals. The influx of water collapses the bag at a fixed rate and the substance contained in the bag is expelled from the OMP at a steady rate. […] Seventeen Standardbred and Standardbred-type mares 3 to 9 years of age were used in the experiment, which commenced on Oct. 2, 1985, when the mares were in transitional anoestrus. The mares were divided into 2 groups. One group (n=g) was treated with an infusion of GnRH at a rate of 100 ng/kg/h delivered by subcutaneously implanted OMP for 28 days. The mares were run in paddocks during the experiment and brought into yards every 2 or 3 days, during which time oestrus detection was carried out. […] Blood samples were collected 3 times per week for determination of plasma LH and progesterone concentrations. Ultrasound echography was used to diagnose pregnancy 14 days after ovulation, and every 2 or 3 days thereafter until Day 45 of pregnancy, when the experiment was terminated.

[5] = system: mares in deep anoestrus; test: Combined results, deep anoestrus (1984 and 1985); settings: 1984 and 1985 combined
Method: Fourteen Standardbred mares in deep anoestrus were divided into 3 groups. Group C (controls; n=5) received no treatment while Group 50 (n=5) and Group 100 (n=4) were given infusions of GnRH at rates of 50 ng/kg/h and 100 ng/kg/h respectively. The GnRH was administered via subcutaneously implanted osmotic minipumps (OMP) for 28 days. Blood samples were collected daily and ovarian palpation and oestrus detection was carried out 3 times per week or daily if a follicle >3.5 cm was detected. The mares were divided into 3 groups. Group C (n=5) were untreated and acted as a control group, while Group 50 (n=5) and Group 100 (n=6) received infusions of GnRH at rates of 50 ng/kg/h and 100 ng/kg/h, respectively. The GnRH was delivered via subcutaneously implanted OMP for 28 days, starting on July 2, 1985. Ovarian palpations and oestrus detection was carried out 3 times per week or daily when an ovarian follice of >3 cm diameter was detected.

[6] = system: mares in transitional anoestrus; test: Combined results, transitional anoestrus (1984 and 1985); settings: 100 ng/kg/h
Method: The experiment commenced on Sept. 10, 1984. Mares were randomised in pairs to a Treated group or a Control group until all the mares had been assigned to groups by Sept. 21. The mares were paired on the basis of each mare having approximately equal ovarian follicular activity. Each treated mare was weighted just prior to the experiment. The dose of GnRH (100 ng/kg/hr) to be administered over 28 days was calculated and dissolved in sterile, physiological (0.9%) saline. The solution was loaded into an OMP and placed in a beaker of saline at room temperature overnight to allow for the "start up time" of the OMP. The mares were divided into 2 groups. One group (n=g) was treated with an infusion of GnRH at a rate of 100 ng/kg/h delivered by subcutaneously implanted OMP for 28 days. The mares were run in paddocks during the experiment and brought into yards every 2 or 3 days, during which time oestrus detection was carried out. […] Blood samples were collected 3 times per week for determination of plasma LH and progesterone concentrations. Ultrasound echography was used to diagnose pregnancy 14 days after ovulation, and every 2 or 3 days thereafter until Day 45 of pregnancy, when the experiment was terminated.

[7] = Group 50, 50 ng/kg/h s.c. OMP 28 days
[8] = Group 100, 100 ng/kg/h s.c. OMP 28 days

## CC(C)C[C@H](NC(=O)CNC(=O)[C@H](Cc1ccc(O)cc1)NC(=O)[C@H](CO)NC(=O)[C@H](Cc1c[nH]c2ccccc12)NC(=O)[C@H](Cc1c[nH]cn1)NC(=O)[C@@H]1CCC(=O)N1)C(=O)N[C@@H](CCCNC(=N)N)C(=O)N1CCC[C@H]1C(=O)NCC(N)=O [GnRH, pGlu-His-Trp-Ser-Tyr-Gly-Leu-Arg-Pro-Gly-NH2]
[1]; Group 50, 50 ng/kg/h
  Average time from OMP insertion to ovulation: 18.5 days
  Percentage mares ovulating: 40%
[1]; [7]
  Proportion mares ovulating: 2 of 5 and 2/5
[1]; Group 100, 100 ng/kg/h
  Average time from OMP insertion to ovulation: 17.3 days
  Percentage mares ovulating: 75%
[1]; [8]
  Proportion mares ovulating: 3 of 4 and 3/4
[1]; Group 100 compared to controls, Day 21
  Mean LH pulse frequency: significantly (<0.05) higher
[1]; between the 3 groups, any of the days studied
  LH pulse amplitude: no statistical difference
[1]; between the groups, Day 28
  LH pulse frequency: no difference
[1]; both treated groups (50 and 100 ng/kg/h) compared to control mares
  Mean daily plasma LH concentrations: higher
[1]; both treated groups compared to controls, within 7 days of insertion of OMP
  LH pulse frequency: significantly (p<0.05) higher
[2]; 100 ng/kg/hr s.c. OMP 28 days, transitional anoestrus, 1984
  Treated mares that ovulated during GnRH infusion: Four of the 5
[2]; 100 ng/kg/hr, 1984
  Treated mares that conceived in association with the first ovulation after insertion of the OMP: Four of the 5
[2]; 100 ng/kg/hr, 1984, n=5, after OMP insertion, p<0.01 vs controls
  Day of conception (x ± s.e.m.): 26.6 ± 9.7 days and 26.6 days
[2]; 100 ng/kg/hr, 1984, n=5, p<0.01 vs controls
  Time (day) of ovulation from commencement of the experiment (x ± s.e.m.): 18.6 ± 4.1 days and 18.6 days
[3]; Group 50, 50 ng/kg/h
  Average time from OMP insertion to ovulation: 24 days
  Percentage mares ovulating: 20%
[3]; [7]
  Proportion mares ovulating: 1 of 5 and 1/5
[3]; Group 100, 100 ng/kg/h
  Average time from OMP insertion to ovulation: 21.8 days
  Percentage mares ovulating: 67%
[3]; [8]
  Proportion mares ovulating: 4 of 6 and 4/6
[4]; 100 ng/kg/h s.c. OMP 28 days, transitional anoestrus, 1985
  Treated mares that ovulated during the period the OMP were functional: Eight of 9
[4]; 100 ng/kg/h, 1985, n=9, P<0.05 vs controls
  Average time (day) of ovulation from commencement of the experiment (x ± s.e.m.): 18.6 ± 4.3 days and 18.8 ± 4.3 days
[4]; 100 ng/kg/h, 1985, treated group
  Mares that failed to conceive: One
[4]; 100 ng/kg/h, 1985, P<0.05 vs controls, one mare failed to conceive
  Average day of conception from commencement of the experiment (x ± s.e.m.): 24.4 ± 8.1 days
[5]; Group 50, 50 ng/kg/h
  Percentage mares ovulating: 30%
  Proportion mares ovulating: 3/10
[5]; Group 100, 100 ng/kg/h
  Percentage mares ovulating: 70%
[5]; Group 100, 100 ng/kg/h, P < .01 vs controls
  Proportion mares ovulating: 7/10
[6]; 1984 and 1985 combined, n=14, P < .001 compared to controls
  Day of ovulation (x ± s.e.m.): 18.6 ± 3.0
[6]; 1984 and 1985 combined, n=14, P < .05 compared to controls
  Day of conception (x ± s.e.m.): 25.2 ± 6.0
[6]; data for the 2 years combined
  Average day of ovulation earlier than the controls: approximately 23 days
  Day of conception earlier than the controls: 24 days
